# Where two headings read alike, the source gives them in different places.
# Tests used:
# HuNoV GI.1 replicon [1] = assay: HuNoV GI.1 replicon assay in HGT cells (RT-qPCR); type: cell-based, Human norovirus
# [2] = test system: Murine norovirus (MNV, strain MNV 1.CW1); assay: MNV-induced CPE reduction assay (MTS) in RAW 264.7 cells; type: cell-based; details: for selectivity index (SI): MNV, CC50/EC50
# [3] = Cytotoxicity assay (MTS) in RAW 264.7 cells; type: cell-based; details: mouse
# HGT cells = assay: Adverse effects on host cells of the HuNoV GI.1 replicon assay; type: cell-based; details: up to the highest tested concentration of 100 µM
# [4] = target: mutated GI.1 proteases (A105V, I109V, A105V/I109V) (Norovirus, UniProt Q83883, A1205V/I1209V); assay: Cell-based FRET protease assay, mutated GI.1 proteases; set-up: species or system Human norovirus; details: versus WT
# [5] = target: mutated GI.1 proteases (A105V, I109V, A105V/I109V) (Norovirus, UniProt Q83883, I1209V); assay: as above; set-up: species or system Human norovirus; details: versus WT
# GV protease = GV protease (Norovirus, UniProt Q80J95); assay: Cell-based FRET protease assay, GV protease
# GII protease = GII protease (Lordsdale virus, UniProt P54634); assay: Cell-based FRET protease assay, GII protease; set-up: species or system norovirus
# [6] = Pharmacokinetic studies in mice; type: in vivo; details: CD-1 mice; for AUC(0-t) / Cmax / Tmax / bioavailability / half-life / AUC(0-inf) / MRT inf / clearance: male, mouse, serum; for AUC(0-inf): read-out: AUCINF_obs; for MRT inf: read-out: MRTINF_obs; for clearance: read-out: CL_obs
# Water solubility = type: physicochemical
# [7] = test system: Murine norovirus (MNV, strain MNV 1.CW1); assay: MNV virus yield assay, viral RNA by RT-qPCR; type: cell-based; details: Norwalk virus, RAW264.7, RAW 264.7 cells
# GI.1 protease = GI.1 protease (Norovirus, UniProt Q83883); assay: Cell-based FRET protease assay, GI.1 protease; set-up: species or system Human norovirus
# HuNoV GI.1 replicon [8] = assay: HuNoV GI.1 replicon clearance assay; type: cell-based, Human norovirus; details: for reduction in HuNoV GI.1 RNA: 10 µM
# [9] = target: mutated GI.1 proteases (A105V, I109V, A105V/I109V) (Norovirus, UniProt Q83883, A1205V); assay: Cell-based FRET protease assay, mutated GI.1 proteases; set-up: species or system Human norovirus; details: versus WT
# [10] = test system: compound 4res MNV variant; assay: Generation of drug-resistant MNV variants; type: cell-based, Murine norovirus; details: after 25 passages (6 months)
# [11] = test system: HuNoV GI.1 replicon variants; assay: Generation of drug-resistant HuNoV GI.1 replicon variants; type: cell-based, Human norovirus; details: for EC50: Norovirus
# [12] = test system: Murine norovirus (MNV, strain MNV 1.CW1); set-up: method as in earlier work; details: read-out: EC50 against MNV; cited from earlier work
# [13] = Norovirus, HuNoV replicon, read-out: HuNoV-EC50
# [14] = Norwalk virus, RAW264.7, read-out: MNV-EC50
# [15] = selection pressure: 6 µM of compound 4
# [16] = selection pressure: 10 µM of compound 4
# [17] = selection pressure: 16 µM of compound 4
# [18] = selection pressure: DMSO control
# [19] = selection pressure: 10 µM of rupintrivir
# [20] = selection pressure: 14 µM of rupintrivir
compound,measurement,setting,value
Cc1cc(C(=O)NC(C(=O)NC(CC2CCCCC2)C(=O)NC(C=O)CC2CCNC2=O)C(C)C)no1 (stereo not drawn) [10a],EC50,HuNoV GI.1 replicon [1]; [13],240 ± 110 nM
same,EC50,[2]; [14],3800 ± 970 nM
CC(C)C(NC(=O)c1cc2ccccc2[nH]1)C(=O)NC(CC1CCCCC1)C(=O)NC(C=O)CC1CCNC1=O (stereo not drawn) [10b],EC50,HuNoV GI.1 replicon [1]; [13],16 ± 9 nM
same,EC50,[2]; [14],230 ± 110 nM
CC(C)C(NC(=O)c1cc2ccccc2o1)C(=O)N[C@@H](CC1CCCCC1)C(=O)N[C@H](C=O)C[C@@H]1CCNC1=O (stereo partly drawn) [10c],EC50,HuNoV GI.1 replicon [1]; [13],16 ± 6 nM
same,EC50,[2]; [14],94 ± 14 nM
CC(C)C(NC(=O)c1ccc2ccccc2n1)C(=O)N[C@@H](CC1CCCCC1)C(=O)N[C@H](C=O)C[C@@H]1CCNC1=O (stereo partly drawn) [10d],CC50,[3],48000 ± 3000 nM
same,adverse effects on the host cells,HGT cells,without adverse effects
same,"change in IC50 value, A105V/I109V mutation",[4]; GI.1 protease,1.6 fold
same,"shift in IC50 value, I109V mutation",[5]; GI.1 protease,2.5 fold
same,IC50,GV protease,490 nM
same,IC50,GII protease,120 nM
same,"improvement in the FRET assay, GII protease",GII protease; versus the initial hit,~ 300 fold
same,"bioavailability, in words",[6],good
same,"half-life (T1/2), in words",[6],long
same,"maximal concentration (Cmax), in words",[6],high
same,Vss_obs,[6]; i.v. (5 mg/kg),3.867 ± 0.758 L/kg
same,AUC(0-t),"[6]; ip, i.p. (20 mg/kg)",10800 ng·h/mL
same,Cmax,"[6]; ip, i.p. (20 mg/kg)",12700 ng/mL
same,Tmax,"[6]; ip, i.p. (20 mg/kg)",0.25 h
same,bioavailability,"[6]; ip, i.p. (20 mg/kg)",150%
same,half-life,"[6]; ip, i.p. (20 mg/kg)",4.26 ± 0.24 h
same,AUC(0-inf),"[6]; ip, i.p. (20 mg/kg)",10800 ng·h/mL
same,MRT inf,"[6]; ip, i.p. (20 mg/kg)",1.34 ± 0.29 h
same,AUC(0-t),"[6]; iv, i.v. (5 mg/kg)",1800 ± 63 ng·h/mL
same,half-life,"[6]; iv, i.v. (5 mg/kg)",5.64 ± 1.63 h
same,AUC(0-inf),"[6]; iv, i.v. (5 mg/kg)",1810 ± 67 ng·h/mL
same,clearance,"[6]; iv, i.v. (5 mg/kg)",46 ± 1.7 mL/min/kg
same,MRT inf,"[6]; iv, i.v. (5 mg/kg)",1.4 ± 0.23 h
same,AUC(0-t),"[6]; sc, s.c. (5 mg/kg)",1840 ± 717 ng·h/mL
same,Cmax,"[6]; sc, s.c. (5 mg/kg)",1570 ± 582 ng/mL
same,Tmax,"[6]; sc, s.c. (5 mg/kg)",0.42 ± 0.29 h
same,bioavailability,"[6]; sc, s.c. (5 mg/kg)",102%
same,half-life,"[6]; sc, s.c. (5 mg/kg)",6.02 ± 0.92 h
same,AUC(0-inf),"[6]; sc, s.c. (5 mg/kg)",1860 ± 718 ng·h/mL
same,MRT inf,"[6]; sc, s.c. (5 mg/kg)",1.7 ± 0.16 h
same,water solubility,Water solubility,low water solubility
same,EC50,HuNoV GI.1 replicon [1]; [13],12 ± 10 nM
same,fold more potent (EC50),HuNoV GI.1 replicon [1]; versus the initial hit,about 100 fold
same,selectivity index (SI),[2],> 1000
same,EC50,[2]; [14],37 ± 16 nM
same,EC50,[7],30 ± 10 nM
same,IC50,GI.1 protease,90 nM
same,"improvement in the FRET assay, GI protease",GI.1 protease; versus the initial hit,~ 300 fold
O=C[C@H](C[C@@H]1CCNC1=O)NC(=O)[C@H](CC1CCCCC1)NC(=O)c1ccc2ccccc2n1 [compound 4],CC50,[3],25300 ± 6100 nM
same,adverse effects on the host cells,HGT cells,no adverse effects
same,reduction in HuNoV GI.1 RNA,HuNoV GI.1 replicon [8]; after three passages,3 log10
same,reduction in HuNoV GI.1 RNA,HuNoV GI.1 replicon [8]; after two passages,2 log10
same,clearance of the HuNoV GI.1 replicon from cells,"HuNoV GI.1 replicon [8]; two consecutive treatments with 10 µM, rebound with G418",could clear cells from the HuNoV GI.1 replicon completely
same,"shift in IC50 value, A105V/I109V mutation in GI.1 protease",[4],not
same,"shift in IC50 value, A105V mutation in GI.1 protease",[9],not
same,"reduction of GI.1 protease sensitivity, single I109V mutation",[5],did not result in a significant reduction
same,IC50,GV protease,32500 nM
same,IC50,GII protease,40600 nM
same,"area under the curve (AUC) value, in words",[6],high
same,"bioavailability, in words",[6],good
same,"half-life (T1/2), in words",[6],moderate
same,"maximal concentration (Cmax), in words",[6],high
same,Vss_obs,[6]; i.v. (5 mg/kg),1.498 ± 0.714 L/kg
same,AUC(0-t),"[6]; ip, i.p. (20 mg/kg)",14900 ng·h/mL
same,Cmax,"[6]; ip, i.p. (20 mg/kg)",14500 ng/mL
same,Tmax,"[6]; ip, i.p. (20 mg/kg)",0.25 h
same,bioavailability,"[6]; ip, i.p. (20 mg/kg)",72.1%
same,half-life,"[6]; ip, i.p. (20 mg/kg)",5.11 ± 1.07 h
same,AUC(0-inf),"[6]; ip, i.p. (20 mg/kg)",15000 ng·h/mL
same,MRT inf,"[6]; ip, i.p. (20 mg/kg)",1.4 ± 0.06 h
same,AUC(0-t),"[6]; iv, i.v. (5 mg/kg)",5160 ± 1320 ng·h/mL
same,half-life,"[6]; iv, i.v. (5 mg/kg)",5.5 ± 0.85 h
same,AUC(0-inf),"[6]; iv, i.v. (5 mg/kg)",5190 ± 1300 ng·h/mL
same,clearance,"[6]; iv, i.v. (5 mg/kg)",16.8 ± 4.4 mL/min/kg
same,MRT inf,"[6]; iv, i.v. (5 mg/kg)",1.44 ± 0.3 h
same,AUC(0-t),"[6]; sc, s.c. (5 mg/kg)",4060 ± 1140 ng·h/mL
same,Cmax,"[6]; sc, s.c. (5 mg/kg)",2200 ± 894 ng/mL
same,Tmax,"[6]; sc, s.c. (5 mg/kg)",0.58 ± 0.29 h
same,bioavailability,"[6]; sc, s.c. (5 mg/kg)",78.6%
same,half-life,"[6]; sc, s.c. (5 mg/kg)",5.63 ± 0.4 h
same,AUC(0-inf),"[6]; sc, s.c. (5 mg/kg)",4110 ± 1140 ng·h/mL
same,MRT inf,"[6]; sc, s.c. (5 mg/kg)",2.95 ± 0.53 h
same,"shift in EC50, MNV compound 4res variant",[10],4.5 fold
same,EC50,[11]; [15],3800 nM
same,EC50,[11]; [16],4300 nM
same,EC50,[11]; [17],11500 ± 900 nM
same,EC50,[11]; [18],800 ± 300 nM
same,Fold Change in EC50,[11]; [15],4.5
same,Fold Change in EC50,[11]; [16],5.2
same,Fold Change in EC50,[11]; [17],13.8
same,EC50,"HuNoV GI.1 replicon [1]; HGT cells, 72 h, replicon RNA relative to β actin, read-out: EC50, HuNoV GI.1 replicon",1200 ± 600 nM
same,selectivity index (SI),[2],35.6
same,EC50,"[2]; Norwalk virus, RAW264.7, RAW 264.7 cells, MTS, read-out: EC50, MNV-induced CPE",~1000 nM
same,EC50,"[2]; RAW 264.7 cells, MTS, read-out: EC50, MNV-induced CPE",700 ± 200 nM
same,EC50,[7],1700 ± 600 nM
same,IC50,GI.1 protease,34000 nM
"CCOC(=O)/C=C/[C@H](C[C@@H]1CCNC1=O)NC(=O)[C@@H](CC(=O)[C@@H](NC(=O)c1cc(C)on1)C(C)C)Cc1ccc(F)cc1 [rupintrivir, Rupintrivir, reference compound]","shift in IC50 value, A105V/I109V mutation in GI.1 protease",[4],significant shift
same,"shift in IC50 value, A105V mutation in GI.1 protease",[9],significant shift
same,"reduction of GI.1 protease sensitivity, single I109V mutation",[5],did not result in a significant reduction
same,IC50,GV protease,4600 nM
same,IC50,"GII protease; FRET, HEK293T cells, WT protease, read-out: IC50, GII protease",12200 nM
same,EC50,[11]; [19],9400 ± 500 nM
same,EC50,[11]; [20],15000 ± 3000 nM
same,EC50,[11]; [18],1000 ± 100 nM
same,Fold Change in EC50,[11]; [19],9.3
same,Fold Change in EC50,[11]; [20],15
same,Fold Change in EC50,"[11]; selection pressure: 14 µM of rupintrivir, listed as Rupintrivir",15.2
same,IC50,"GI.1 protease; FRET, HEK293T cells, WT protease, read-out: IC50, GI.1 protease",3000 nM
same,EC50,[12],13000 ± 2000 nM

# From publication PMC8472913 (Viruses, 2021)
